Measurements reported in paper PMC8708495, “Population Pharmacokinetics and Pharmacodynamic Target Attainment of Isavuconazole against Aspergillus fumigatus and Aspergillus flavus in Adult Patients with Invasive Fungal Diseases: Should Therapeutic Drug Monitoring for Isavuconazole Be Considered as Mandatory as for the Other Mold-Active …” (Pharmaceutics, 2021).
Like-named read-outs stand apart in the source and are kept apart here.

Columns and labels:
[1] = Population pharmacokinetic modeling (NPAG, Pmetrics); format: in vivo, human; settings: for clearance / Vd / bioavailability: human, serum, 200 mg daily; for clearance / Vd: other: orally or intravenously; for clearance: read-out: CL, total body clearance (converted); for bioavailability: po, read-out: Fos, oral bioavailability
Procedure: Population pharmacokinetics were conducted using the nonparametric adaptive grid approach (NPAG) and the algebraic model solver included in the Pmetrics package (Version 1.5.0, Laboratory of Applied Pharmacokinetics and Bioinformatics, Los Angeles, CA, USA) of R [22]. One- and two-compartment models with first-order absorption and first-order elimination from the central compartment were developed. Maximum a posteriori (MAP)-Bayesian estimates of isavuconazole clearance (CL) and volume of distribution (V) were determined in each patient.
Influence of covariates was assessed by including the biologically plausible clinical covariates into the basic model. Covariate analysis was conducted by means of the Pmetrics function “PMstep” and by linear regression between the median MAP-Bayesian estimates of isavuconazole pharmacokinetic parameters and each tested covariate.
Model comparison was performed by calculating the objective function value (OFV) and the Akaike information criterion (AIC) value. An improvement between the two competitive models was considered statistically significant when the decrease in the OFV was at least 3.84 points. For both the population predictions and the individual predictions, model fit was assessed by evaluating the coefficient of determination of the linear regression of the observed versus predicted concentration plot. Internal model validation was performed by means of a visual predictive check (VPC) with n = 1000 simulations. The normalized prediction distribution errors (NPDE) were also calculated. The VPC plot compares the observed concentrations with model-predicted concentration-time profiles. A model is reliable when ≥95% of the observed concentrations reside within the 95% CI of the model prediction. Assay laboratory error was estimated by means of the interday variability assay data. A first-order polynomial regression was used between drug concentrations and the standard deviation of the observations (C0 = 0.006, C1 = 0.189). Extra process noise was captured with a gamma (G) model (G = 2).

[2] = tested on: A. fumigatus; set-up: method as in PMID 25753636; settings: EUCAST MIC method; associated with a 90% survival rate against disseminated aspergillosis by wild-type and azole-resistant A. fumigatus; cited from earlier work
[3] = tested on: A. fumigatus; set-up: method as in earlier work; settings: EUCAST; cited from earlier work
[4] = tested on: A. flavus; set-up: method as in earlier work; settings: EUCAST; cited from earlier work
[5] = Safety and liver enzyme monitoring during isavuconazole therapy; format: in vivo
Procedure: (§1) The following demographic and clinical data were retrieved from each patient’s medical record: age, gender, weight, height, type and site of infection and microbiological isolate. Patient comedications, along with serum albumin, total bilirubin, ALT, AST and γ-GT concentrations, were recorded at each TDM assessment. Drug-induced liver injury was defined as mild, moderate, severe or fatal according to the EASL Clinical Practice Guidelines for drug-induced liver injury. Drug cotreatments were accurately reviewed by a clinical pharmacologist with the intent of assessing the eventual influence on isavuconazole clearance by CYP3A4 inhibitors and/or inducers. CYP3A4 inhibitors and/or inducers were classified as strong, moderate and mild according to the FDA [19] and to the DrugBank database. Patient outcome at end of therapy was defined as successful (in case of clinical, radiological and/or mycological resolution or improvement of infection) or failed according to [21].

[6] = Mixed-effect linear regression of clinical variables associated with isavuconazole Ctrough; format: in vivo, human
Procedure: Data were presented as median and interquartile range (IQR) for continuous variables or as count and percentage for categorical variables in the descriptive statistics. Univariate and multivariate linear mixed-effect models (with a random effect to account for correlation among repeated measurements within the same subject) were performed to identify clinical independent predictors of isavuconazole Ctrough. All variables that were associated with a p ≤ 0.20 at univariate analysis were subsequently included in the multivariate model. All statistical and graphical analyses were performed with R version 3.4.4 (R Foundation for Statistical Computing, Vienna, Austria). Data were considered statistically significant when p < 0.05.

[7] = set-up: method as in PMID 26598096; settings: cited from earlier work
[8] = Therapeutic drug monitoring of isavuconazole Ctrough and Cpeak in hospitalized patients; format: in vivo, human
Procedure: Isavuconazole treatment was started with a loading dose of 200 mg every 8 h for two days, followed by a maintenance dose of 200 mg daily administered orally or intravenously, at the physician’s discretion. Patients underwent TDM of isavuconazole by assessing plasma Ctrough, which was determined approximately five minutes before the scheduled daily dose, and, whenever possible, also plasma Cpeak, which was determined 2 h after oral administration or 0.5 h after a 1 h intravenous infusion. TDM was assessed firstly after at least 72 h from starting therapy and subsequently reassessed at the discretion of the attending physician.
Blood samples for isavuconazole TDM were immediately delivered to the Institute of Clinical Pharmacology, where they were centrifuged to obtain serum. Isavuconazole serum concentrations were estimated by means of a validated liquid chromatography–tandem mass spectrometry analytic method. Precision and accuracy were assessed by replicate analysis of quality control samples against calibration standards. Intra- and interassay coefficients of variation were always <10%. The LOQ was 0.11 mg/L, and the assay was linear in the range of 0.1–10 mg/L.

[9] = cited from earlier work
[10] = tested on: invasive fungal disease; assay: Clinical outcome at end of isavuconazole treatment; format: in vivo, human
Procedure: This was a monocentric, retrospective, observational study conducted among patients who were treated with isavuconazole because of IFD between September 2017 and November 2020 at the Azienda Sanitaria Universitaria Friuli Centrale of Udine, Italy.
as §1

[11] = cited from earlier work; remark: listed apart in the source
[12] = Mean, final population pharmacokinetic model
[13] = Median, final population pharmacokinetic model

## C[C@@H](c1nc(-c2ccc(C#N)cc2)cs1)[C@](O)(Cn1cncn1)c1cc(F)ccc1F [isavuconazole, Isavuconazole]
[1]; [12]
  Ka, first-order transfer rate constant of absorption: 22.64 h⁻¹
  Vp, volume of distribution of the peripheral compartment: 735.24 L
  clearance: 25.3 mL/min
  bioavailability: 95%
[1]; [13]
  CL, total body clearance: 1.33 L/h
  Ka, first-order transfer rate constant of absorption: 22.64 h⁻¹
  Vp, volume of distribution of the peripheral compartment: 385.93 L
  clearance: 25.3 mL/min
  bioavailability: 100%
[1]; Mean, final population pharmacokinetic model, read-out: V, volume of distribution of the central compartment
  Vd: 89.5 L
[1]; Median, final population pharmacokinetic model, read-out: V, volume of distribution of the central compartment
  Vd: 103 L
[1]; population pharmacokinetic model, read-out: median volume of distribution
  Vd: 489 L
[1]; population pharmacokinetic model
  interindividual variability on CL: 64%
[2]
  AUC24 h/MIC pharmacodynamic threshold of efficacy: > 33.4
[3]
  clinical breakpoint: 1 mg/L
[4]
  clinical breakpoint: 1 mg/L
[5]; 50 patients
  signs and/or symptoms of isavuconazole toxicity during therapy: No patient experienced signs and/or symptoms of isavuconazole toxicity during therapy
[5]; one patient, resolved spontaneously without isavuconazole withdrawal
  ALT in intercurrent mild hepatotoxicity: up to 261 IU/L
[5]; patients on isavuconazole
  alanine-aminotransferase (ALT), median (min–max): 21.0 (3.0–261.0) UI/L
  aspartate-aminotransferase (AST), median (min–max): 20.0 (5.0–249.0) UI/L
  gamma-glutamyltransferase (γ-GT), median (min–max): 70.0 (12.0–642.0) IU/L
[6]; Multivariate Analysis, Cotreatment with CYP3A4 inhibitors
  Unstandardized β-Coefficient (95% CI) for Ctrough: 2.154 (3.248–1.060)
[6]; Multivariate Analysis, Dose/kg daily (mg/kg)
  Unstandardized β-Coefficient (95% CI) for Ctrough: 0.402 (0.819−0.016)
[6]; Multivariate Analysis, γ-GT (IU/L)
  Unstandardized β-Coefficient (95% CI) for Ctrough: −0.0004 (0.002−0.002)
[6]; Univariate Analysis, ALT (IU/L)
  Unstandardized β-Coefficient (95% CI) for Ctrough: −0.001 (0.007−0.009)
[6]; Univariate Analysis, AST (IU/L)
  Unstandardized β-Coefficient (95% CI) for Ctrough: −0.008 (-0.002–0.004)
[6]; Univariate Analysis, Albumin (g/L)
  Unstandardized β-Coefficient (95% CI) for Ctrough: 0.034 (0.087−0.019)
[6]; Univariate Analysis, Cotreatment with CYP3A4 inhibitors
  Unstandardized β-Coefficient (95% CI) for Ctrough: 2.39 (3.337–1.443)
[6]; Univariate Analysis, Days from starting therapy (days)
  Unstandardized β-Coefficient (95% CI) for Ctrough: 0.001 (0.007−0.005)
[6]; Univariate Analysis, Dose/kg daily (mg/kg)
  Unstandardized β-Coefficient (95% CI) for Ctrough: 0.815 (1.164–0.466)
[6]; Univariate Analysis, Gender (male vs. female)
  Unstandardized β-Coefficient (95% CI) for Ctrough: 0.099 (6.986−6.788)
[6]; Univariate Analysis, Total bilirubin (mg/dL)
  Unstandardized β-Coefficient (95% CI) for Ctrough: −0.346 (0.034−0.726)
[6]; Univariate Analysis, Weight (kg)
  Unstandardized β-Coefficient (95% CI) for Ctrough: −0.029 (0.006−0.064)
[6]; Univariate Analysis, γ-GT (IU/L)
  Unstandardized β-Coefficient (95% CI) for Ctrough: 0.003 (0.005–0.001)
[6]; associated with patient age
  reduction in Ctrough: 3.7%
[6]; cotreatment with mild/moderate CYP3A4 inhibitors
  increase in isavuconazole Ctrough: more than 2 fold
[7]
  plasma protein binding: > 98%
[8]; 2 of 175 Ctrough
  proportion of measured Ctrough <1.0 mg/L: 1.1%
[8]; 50 of 175 Ctrough
  proportion of measured Ctrough >5.13 mg/L: 28.6%
[8]; median of 24 Cpeak, patients n = 50, dose 200 mg
  Cpeak: 4.67 mg/L
[8]; median of 175 Ctrough, patients n = 50, dose 200 mg
  Ctrough: 3.68 mg/L
[9]; ROC analysis, mild adverse events
  cut-off value for toxicity (Ctrough): 5.13 mg/L
[9]
  Median isavuconazole concentration on days when side effects occurred: 6.65 mg/L
  Median isavuconazole concentration when side effects were not present: 4.09 mg/L
[9]; in vivo
  isavuconazole levels associated with hepatic veno-occlusive disease: > 10 mg/L
[9]; linear mixed model, 264 Ctrough samples from 19 patients
  linear increase of concentration for each day of treatment: 0.032 mg/L
[10]; 3/47
  lack of significant improvement with isavuconazole treatment: 6.4%
[10]; 3/47, progression of underlying oncohematological disease
  Dead for other reasons: 6.4%
[10]; clinical outcome at end of treatment, Table 1 (12/47)
  Treatment failure: 25.5%
[10]; clinical outcome at end of treatment, patients who completed treatment (n = 47)
  Successful treatment: 68.1%
[10]; clinical outcome, text (9/47)
  failure: 19.2%
[11]
  dose up to which the pharmacokinetics are linear: up to 600 mg daily
  elimination half-life: 80 to 130 h
[11]; multiple-dose study, 32 healthy volunteers, IV and oral
  plasma drug accumulation ratio between start and end of therapy: 3.8–5.2
[11]; observed in SOT patients
  CL: 4.28 L/h
[11]; reported by previous analysis
  interindividual variability on CL: 43–63%
[11]; reported in clinical trials
  CL: 2.2 to 2.5 L/h
